Molecules are shown by their SMILES.

The test system of this experiment is adult German cockroaches. In words: Knock-down test: oil solution sprayed on adult German cockroaches. Type of experiment: in vivo, Blattella germanica (German cockroach). The protocol: According to Production example 7, each of the 0.5% oil solutions of The Pyrone Compound and Reference compound 1 was prepared. A square of paper (side: 20 cm) was covered on the iron net set on the bottom of the metallic chamber (46 cm×46 cm, 70 cm in height). A container (8.75 cm in diameter, 7.5 cm in height, having 16-mesh net at the bottom and spreading butter on the wall for preventing escape) was set on the paper. In the container, ten (5 males and 5 females) adult German cockroaches were released. By means of spray gun, 1.5 ml of the above oil solution was applied to the test insects at pressure of 4.1×10^4 Pa from the upper part of the chamber. The container was taken out of the chamber 30 seconds after spraying and the test insects were transferred to a plastic cup. Two minutes after spraying, the knocked-down cockroaches were counted. According to Production example 7, each of the 0.25% oil solutions of The Pyrone Compound and Reference compounds 2 and 3 was prepared. The same procedures as Test Example 1 gave the knock-down percentages and KT50 values (minutes for knocked-down 50% of cockroaches) in Table 2.

Setting [1] is: 0.25% oil solution, same procedures as Test Example 1, average of 6 (The Pyrone Compound) or 3 (references) repetitions.
Where [2] appears, read: 0.5% oil solution, 1.5 ml sprayed, knocked-down cockroaches counted two minutes after spraying.

For `Cc1cc(O)c(C(=O)CC(C)C)c(=O)o1` [The Pyrone Compound, 4-hydroxy-6-methyl-3-(3-methylbutanoyl)-2-pyrone], under setting [1], the “KT50 (minutes for knocked-down 50% of cockroaches)” value is 0.85 min and the “Knock-down percentage (%)” value was 95%. The “Knock-down percentage (%)” value under setting [2] worked out at 100%.

Consider `Cc1cc(O)c(C(=O)C2CC2)c(=O)o1` [Reference compound 3, 4-hydroxy-6-methyl-3-(cyclopropanecarbonyl) -2-pyrone], for which, under setting [1], the “KT50 (minutes for knocked-down 50% of cockroaches)” value is “more than 10 minutes” and the “Knock-down percentage (%)” value was 6.7%.

`CCC(CC)C(=O)c1c(O)cc(C)oc1=O` [Reference compound 2, 4-hydroxy-6-methyl-3-(2-ethylbutanoyl)-2-pyrone]: under setting [1], the “KT50 (minutes for knocked-down 50% of cockroaches)” value is “more than 10 minutes” and the “Knock-down percentage (%)” value stood at 0%.

As for `Cc1cc(O)c(C(=O)C(C)C)c(=O)o1` [Reference compound 1, 4-hydroxy-6-methyl-3-(2-methylpropanoyl)-2-pyrone], under setting [2], the “Knock-down percentage (%)” value is 10%.
